# US20250049750A1, “MALTODEXTRIN FORMULATIONS” (Amazentis SA, priority 2023, published 2025)
# Experiment: Phase II single-dose oral pharmacokinetic study of urolithin A in a maltodextrin formulation
# Assay type: in vivo
# Conditions: human, n = 12
# Description: A phase II clinical study was carried out to determine the bioavailability of urolithin A when dosed in a formulation containing maltodextrin to human subjects.
# In particular, the pharmacokinetic parameters of the compound were investigated in an open-label, parallel-arm, randomized, single-period, single-dose pharmacokinetic study. Subject enrolled where healthy volunteers, both males and females aged between 18 and 45 years. Formulation details and clinical study procedures are described in the method section below.
# Subjects were administered orally as a single dose with a maltodextrin formulation (Table 2). The formulations was administered to deliver a total dose of 500 mg Urolithin A per dosing. Plasma samples were collected pre-dosing and at sequential time points after dosing, i.e. 1 hr, 4 hrs, 6 hrs, 8 hrs, 12 hrs, 24 hrs, 72 hrs. Plasma levels of parent Urolithin A were determined and expressed as pg/ml.
# A total of 24 participants were enrolled in the study (12 subject per group). Subjects were healthy male and female participants. Subjects were selected after a screening to meet all the following criteria aged between 18 and 45 years; with Body Mass Index (BMI) between 18.50-30.00 kg/m2;
# Maltodextrin formulation (urolithin A Powder with Maltodextrin): half a scoop (1.5 g) of powder, containing 500 mg of Urolithin A. Composition is described in Table 2.
# Mode of Administration: Participants take the powder orally on an empty stomach in a sitting position, after an overnight fast. The powder was mixed with 240±2 mL of milk, shaken well, and consumed. It was ensured that all liquid was swallowed without leaving any residue behind or retaining in the mouth.
# This study was an open-label, parallel-arm, single-period, single-dose, randomized study wherein each participant received a single dose of allocated investigational product administered orally to the trial participants in a sitting posture. The formulation was administered with about 240 mL of whole milk (3% fat content) in a sitting posture.
# PK blood samples were collected at pre-dose and post-dose at 1 hr, 4 hrs, 6 hrs, 8 hrs, 12 hrs, 24 hrs, 72 hrs. PK blood samples were collected by direct vein puncture or using a venous cannula. When multiple blood sample collection were scheduled on the same day from the same participant, at the discretion of the investigator, a venous cannula was inserted and blood samples collected from the cannula to avoid multiple pricks. For the same, an intravenous (IV) cannula was placed in a forearm vein or dorsal aspect of the hand of the participants. Intravenous indwelling cannula kept in situ as long as required by injecting 0.3 mL of normal saline or heparinized saline (to prevent the cannula from clogging). Because the cannula contains stagnant blood and normal or heparinized saline, it was […] before collection of the pharmacokinetic blood sample, for the same, 0.3 mL (or as appropriate depending upon the size and length of the cannula) of normal saline/heparinized saline diluted blood was discarded prior to collection of the next PK sample. […] All PK blood samples was collected or transferred (in case if collected in a syringe) in K2-EDTA blood collection tubes.
# After collection, the PK blood samples were centrifuged at 4000 RPM at 4° C.±2° C. for 10 minutes. The plasma was separated and transferred to labeled polypropylene tubes and stored in a freezer at −80° C.±10° C. Pharmacokinetics parameters of Urolithin A were calculated from the concentration Vs. time data using Phoenix@WinNonlin® professional software (Version 8.1.1 or higher) (Certara, Princeton, New Jersey, USA).
smiles,measurement,setting,value
O=c1oc2cc(O)ccc2c2ccc(O)cc12 [Urolithin A],"Urolithin concentrations in blood, Mean","Pre-dose, plasma parent Urolithin A",1.00 pg/mL
same,concentration at 1 h,"both sexes, 1 h after single oral 500 mg Urolithin A in maltodextrin formulation, plasma, read-out: Urolithin concentrations in blood, Mean",0.551 ng/mL
same,concentration at 4 h,"both sexes, 4 h after single oral 500 mg Urolithin A in maltodextrin formulation, plasma, read-out: Urolithin concentrations in blood, Mean",1.07 ng/mL
same,concentration at 6 h,"both sexes, 6 h after single oral 500 mg Urolithin A in maltodextrin formulation, plasma, read-out: Urolithin concentrations in blood, Mean",1.4 ng/mL
same,concentration at 8 h,"both sexes, 8 h after single oral 500 mg Urolithin A in maltodextrin formulation, plasma, read-out: Urolithin concentrations in blood, Mean",0.775 ng/mL
same,concentration at 12 h,"both sexes, 12 h after single oral 500 mg Urolithin A in maltodextrin formulation, plasma, read-out: Urolithin concentrations in blood, Mean",0.72 ng/mL
same,concentration at 24 h,"both sexes, 24 h after single oral 500 mg Urolithin A in maltodextrin formulation, plasma, read-out: Urolithin concentrations in blood, Mean",0.404 ng/mL
same,concentration at 72 h,"both sexes, 72 h after single oral 500 mg Urolithin A in maltodextrin formulation, plasma, read-out: Urolithin concentrations in blood, Mean",0.167 ng/mL
